Calls of active or inactive are those of the source.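 Rule for the calls: active = compounds whose mean EC50, the dose giving half the maximal reporter activation, is at or below a set limit; inactive = the rest.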
target: CHO-CHOP luciferase reporter, UPR activation, luminescence; assay: activators of PERK-eIF2a-CHOP UPR arm, confirmation, CHO-CHOP cells, luciferase luminescence (AID 489024);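 note: compounds added alone to reporter cells with no tunicamycin stress co-treatment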

SMILES	EC50
CN=c1scc(-c2ccco2)n1/N=C/c1ccc(O)c(O)c1	1.23 µM
Cc1ccc2cccc(NS(=O)(=O)c3ccccc3)c2n1	3.53 µM
C/C(=N\NC(=O)c1cc(Br)ccc1O)c1ccccn1	6.67 µM
CN(C)C(=O)CSc1cccc2cccnc12	8.15 µM
Oc1ccc(/C=N/Nc2cc(N3CCCC3)nc(N3CCCC3)n2)cc1O	13.2 µM
COc1cc(/C=C2\COC/C(=C\c3ccc(O)c(OC)c3)C2=O)ccc1O	6.34 µM
Cn1cc(/C=C2\SC(=O)NC2=S)c2ccccc21	> 80 µM (inactive)
Cc1cccc(-n2ncc(Cl)c(Cl)c2=O)c1	7.81 µM
CCCN1C/C(=C/c2ccc3c(c2)OCO3)C(=O)/C(=C/c2ccc3c(c2)OCO3)C1	7.78 µM
COc1ccc(N=C2S/C(=C\c3ccc(N4CCOCC4)o3)C(=O)N2CCc2c[nH]c3ccccc23)cc1	18.4 µM
CCCCOc1ccc(N2C(=O)CC(N(O)c3ccccc3)C2=O)cc1 (configuration not stated)	7.25 µM
CCCN1Cc2cccc(C(=O)Nc3ccc(-c4nc5ccccc5[nH]4)cc3)c2C1=O	> 80 µM (inactive)
Cc1cccnc1Nc1nc(-c2ccccn2)cs1	0.64 µM
CCCn1c(CC)nc([N+](=O)[O-])c1S(=O)(=O)c1ccccc1	> 80 µM (inactive)
CC1(C)CC(=O)C(=Cc2cn(-c3ccccc3)nc2-c2ccccc2)C(=O)C1	inactive
C[C@@H]1C[C@@H]2O[C@H]2/C=C\C=C\C(=O)Cc2c(Cl)c(O)cc(O)c2C(=O)O1	5.32 µM
COc1ccc(/C=C\c2nc(=O)c3ccccc3o2)cc1	8.46 µM
Oc1cc(-c2cccnc2)cc2cccnc12	inactive
CCOc1cc(/C=N/Nc2cc(C)nc(-n3nc(C)cc3C)n2)ccc1O	13.6 µM
CCCN(CCC)C(=O)c1cc([N+](=O)[O-])cc2c1-c1ccc([N+](=O)[O-])cc1C2=C(C#N)C#N	13.3 µM
Cc1ccc(C)c(NC(=O)/C(C#N)=C/c2cn(CC(=O)NCc3ccco3)c3ccccc23)c1	> 80 µM (inactive)
Oc1[nH]c2ccccc2c1N=NC(=S)N1CCOCC1	7.74 µM
Cc1cccc(CSc2cccc3cccnc23)c1	7.72 µM
CCc1ccc2nc(N(CCCN(C)C)C(=O)c3ccc(S(=O)(=O)N(C)C4CCCCC4)cc3)sc2c1	10.6 µM

SMILES	EC50
COc1cccc(N=Nc2ccc3cccnc3c2O)c1	10.2 µM
Cc1ccc(CS(=O)(=O)c2ncc(Cl)c(C(=O)Nc3ccc(OC(F)F)cc3)n2)cc1	> 80 µM (inactive)
COc1ccc(C(=O)N/N=C(\C)c2ccccn2)cc1OC	2.82 µM
COc1cc(C(=O)Nc2nc(-c3ccc(Cl)cc3)c(C)s2)ccc1OCC(=O)Nc1ccc(F)cc1	13.3 µM
CSc1nnc(NC(=O)c2nc(S(=O)(=O)Cc3ccccc3F)ncc2Cl)s1	> 80 µM (inactive)
COc1ccc(N=Nc2ccc(O)c3ncccc23)cc1	7.89 µM
CSc1nnc(NC(=O)c2nc(S(=O)(=O)Cc3ccc(C)cc3)ncc2Cl)s1	13.6 µM
CCc1cccc2sc(N3CCN(C(=O)c4ccc([N+](=O)[O-])o4)CC3)nc12	10.5 µM
Cc1cc(N2CCN(c3ccc([N+](=O)[O-])c4cccnc34)CC2)c2ccccc2n1	inactive
COc1ccc(NC(=O)C(=O)N/N=C\c2ccc(CNC(=O)C(=O)Nc3ccc(C)c(C)c3)o2)c(OC)c1	8.25 µM
Cc1c(C#N)c(NC(=O)CCl)n(Cc2ccc(F)cc2)c1C	16 µM
O=C(CN(c1cccc(C(F)(F)F)c1)S(=O)(=O)c1ccc(Cl)c([N+](=O)[O-])c1)NCc1ccc(F)cc1	11.7 µM
CCOc1cc(/C=N/NC(N)=S)cc(Br)c1OCc1ccccc1C	inactive
Cc1coc2c1C(=O)C(=O)c1c-2ccc2c(C)cccc12	> 80 µM (inactive)
CC(=O)/C(=C/c1ccccc1)C(=O)Nc1ccccc1C	inactive
Cc1ccc(-c2nc(N/N=C/c3cccc([N+](=O)[O-])c3)c3ccccc3n2)cc1	inactive
N#CC12COC3(CCCCC3C1(C#N)C#N)OC2=N (configuration not stated)	> 80 µM (inactive)
Cc1nc2ccccc2n1-c1nc(-c2ccco2)cc(C(F)(F)F)n1	6.76 µM
CCc1ccc(-n2c(SCC(=O)c3ccc4c(c3)NC(=O)CO4)nc3ccccc3c2=O)cc1	12.9 µM
CC(C)N1C(=O)/C(=C/C=C/c2ccco2)C(=O)N(Cc2ccco2)C1=O	8.46 µM
Oc1c(CN2CCCCC2)cc(Br)c2cccnc12	10.6 µM
COc1ccc(-c2cc(-c3ccccc3)c(C#N)c(S(C)(=O)=O)n2)cc1	5.18 µM
Cc1ccc(C(C)C)c(OCc2ccc(C(=O)N/N=C/c3ccc(O)c(O)c3)cc2)c1	> 80 µM (inactive)

From PubChem BioAssay AID489024 (Sanford-Burnham Center for Chemical Genomics, 2010)
